From US20120208776A1 (priority 2002, published 2012)
Converted amounts (≈) assume the structure as drawn. “And” between values parts separate entries of the source, which are not always exact repeats. Identical values can stand only once. Like-named read-outs stand apart in the source and are kept apart here.

Legend:
MDA-MB-453 cells [1] = experiment: Cell proliferation, cell count (Coulter Counter); details: Homo sapiens, MDA-MB-453, 96 h
Experimental: For the cell count assay, breast cancer cells were seeded, in triplicate, at 2×10^4 cells per well, in 24- or 96-well plates.
(§1) For the Coulter counter assay, cells were seeded at 2×10^4 cells per well in 24 well plates (0.875 cm diameter) as described previously. […] Control and treated cells were compared using the student's t-test (p<0.05). For cell cycle analysis the cells were plated (3×10^5) onto 6 cm dishes and allowed to attach for 24 hours. […] After 24 hours the cells were analyzed by DNA flow cytometry, as described previously.

Na^+-K^+-ATPase [2] = molecular target: T1, Na^+-K^+-ATPase; experiment: Enzymatic assay of adenosine 5′-triphosphatase; assay type: biochemical; details: read-out: IC50 (50% inhibition of Na^+-K^+-ATPase activity); purified enzyme, in vitro
T1 construct: Combination index; actein (μM); Combination index; actein; ATPase activity; other: actein 0.8 μM alone; other: digitox
Experimental: Enzymatic assay of adenosine 5′-triphosphatase. The enzymatic assay of ATPase (adenosine 5′-triphosphatase, EC 3.6.1.3) followed the Sigma Prod. […] [P] was determined by the Taussky-Shorr method.

BT474 cells = experiment: Cell proliferation, cell count (Coulter Counter); assay type: cell-based; details: Homo sapiens
MDA-MB-453 cells [3] = experiment: Combination of agents, MTT assay, combination index
Experimental: Calculating the Combination Index. To determine the Combination Index (CI), 1) the Na^+-K^+-ATPase enzyme or 2) MDA-MB-453 cells were exposed to all combinations of 3, 4 or 5 concentrations of each of the agents tested and a solvent control. […] The results of the enzymatic assay of ATPase or MTT assay were analyzed for possible synergistic effects using the median effect principle. Variable ratios of drugs were employed and mutually exclusive equations were assumed.
Calculating the Combination Index.
The simvastatin was obtained from Sigma of St. Louis, Mo. The concentrations tested in the present example were 0, 0.2, 2, 5, and 20 μg/ml actein and 0, 0.8, 4, 20 and 40 μg/ml simvastatin.

ERK2 in MDA-MB-453 cells = experiment: RNAi-mediated gene knockdown of ERK2 (MAPK1), growth inhibition; assay type: cell-based, human; details: for cell proliferation: digitoxin 0.4 μg/ml, 24 hours; for inhibition at 20 µg/mL: Homo sapiens, MDA-MB-453, 48 h, actein 20 μg/ml, 48 h, read-out: percent growth inhibition
Experimental: RNAi-mediated gene knockdown. To test the functional relevance of ERK2 (p42/44MAPK pathway), the growth inhibitory effects of actein on MDA-MB-453 cells using the model system RNAi-mediated gene knockdown was examined. Cells were pretreated with siRNA to ERK2 (Hs/Mm MAPK1 siRNA) (Qiagen, Valencia, Calif.) for 24 h, then treated with actein at 20 μg/ml for 48 h, and the percent surviving cells was assayed. Western blot analysis was performed to confirm the ERK2 knockdown.

MCF7 cells = experiment: MTT assay, 96 hours; assay type: cell-based, human
Na^+-K^+-ATPase [4] = system: T1, Na^+-K^+-ATPase; experiment: Combination of agents on Na^+-K^+-ATPase activity, combination index; assay type: biochemical
HCC1569 cells = experiment: MTT assay, 96 hours; assay type: cell-based; details: Homo sapiens
MDA-MB-453 cells [5] = experiment: MTT assay, 96 hours; assay type: cell-based, human; details: for IC50: Homo sapiens, MTT, 96 h
Experimental: as §1

MDA-MB-453 cells [6] = experiment: Cell-cycle analysis by DNA flow cytometry; assay type: cell-based, human; details: for G1 / G2 / S / SubG1: 24 hours; for Sub G1 (%) / G1 (%) / G2/M (%) / S (%): 48 hrs
Experimental: Synchrony: To synchronize the cells, 3×10^5 cells were plated onto 10 cm dishes and grown for 2 days in DMEM supplemented with 10% fetal bovine serum.
After incubation for 1-3 days, the supernatant was collected, and the cells were trypsinized, collected, and washed with phosphate buffered saline (PBS) containing 5% FBS. Cell pellets were re-suspended in 1 ml of PBS plus 5% FBS. Thereafter, 5 ml of 70% ethanol were added drop-wise, while vortexing the tube, and the mixture was stored at 4° C. Cells were centrifuged, washed with PBS plus 5% FBS, and re-suspended in 400 μl of propidium iodide (0.1 mg/ml) (Sigma Chemical Co.). 400 μl (2 mg/ml) of RNase (Sigma Chemical Co.) were added, and the cells were incubated in the dark at room temperature for 30 min.

[7] = Homo sapiens, MDA-MB-453, read-out: percent viable cells

## C[C@H]1O[C@@H](O[C@H]2[C@@H](O)C[C@H](O[C@H]3[C@@H](O)C[C@H](O[C@H]4CC[C@@]5(C)[C@H](CC[C@@H]6[C@@H]5CC[C@]5(C)[C@@H](C7=CC(=O)OC7)CC[C@]65O)C4)O[C@@H]3C)O[C@@H]2C)C[C@H](O)[C@@H]1O [digitoxin]
MDA-MB-453 cells [1]
  IC50: 0.04 µg/mL and 50 nM
Na^+-K^+-ATPase [2]
  IC50: 0.8 µM
BT474 cells; BT-474, BT474, Coulter counter
  IC50: 0.03 µg/mL and 40 nM
BT474 cells; BT-474, BT474, unit inferred
  IC50: 0.039 µM
MDA-MB-453 cells [3]; Homo sapiens, MDA-MB-453, read-out: percent viable cells, digitoxin 0.01 μg/ml alone (actein study)
  viability at 0.01 µg/mL: 62.8%
MDA-MB-453 cells [3]; Homo sapiens, MDA-MB-453, read-out: percent viable cells, digitoxin 0.01 μg/ml alone (paclitaxel study)
  viability at 0.01 µg/mL: 73%
ERK2 in MDA-MB-453 cells; control siRNA
  cell proliferation: 96.0%
ERK2 in MDA-MB-453 cells; siRNA to MAPK1
  cell proliferation: 76.9%
MCF7 cells; Homo sapiens, MCF7, MCF7
  IC50: 0.2 µg/mL
MCF7 cells; Homo sapiens, MCF7, MCF7, unit inferred
  IC50: 0.261 µM
MCF7 cells; MCF7, unit inferred
  IC50: 0.26 µM
Na^+-K^+-ATPase [4]; digitoxin 0.2 μM alone
  ATPase activity: 87.8%
Na^+-K^+-ATPase [4]; digitoxin 0.8 μM alone
  ATPase activity: 53.6%
HCC1569 cells
  IC50: 0.12 µM
MDA-MB-453 cells [5]; MDA-MB-453, 96 h
  IC50: ~0.025 µg/mL and ~33 nM
MDA-MB-453 cells [6]; digitoxin 0.2 μg/mL
  G1: 46.50 (1.98) %
  G2: 19.05 (0.07) %
  S: 27.65 (0.64) %
MDA-MB-453 cells [6]; digitoxin 0.2 μg/mL, SD in parentheses
  SubG1: 6.77 (1.06) %
MDA-MB-453 cells [6]; digitoxin 2.0 μg/mL
  G1: 41.90 (2.26) %
  G2: 32.10 (1.27) %
  S: 17.80 (0.42) %
  SubG1: 5.78 (1.02) %

## CC(=O)O[C@@H]1C[C@@]23C[C@@]24CC[C@H](O[C@@H]2OC[C@@H](O)[C@H](O)[C@H]2O)C(C)(C)[C@@H]4CC[C@H]3[C@]2(C)C[C@@H]3O[C@]4(C[C@@H](C)[C@@H]3[C@@]12C)O[C@H](O)[C@@]1(C)O[C@@H]41 [actein]
MDA-MB-453 cells [1]
  IC50: ~8 µg/mL (≈ 11.8 µM)
Na^+-K^+-ATPase [2]
  IC50: 11.2 µM and 16 µM
BT474 cells; BT-474, BT474, unit inferred, read-out: IC50
  IC50: 23.6 µM
MDA-MB-453 cells [3]; [7]
  viability at 0.2 µg/mL: 97.8%
  viability at 2 µg/mL: 75.8%
  viability at 5 µg/mL: 70.9%
MDA-MB-453 cells [3]; actein 2 ug/ml alone (simvastatin study)
  cell survival: 68.2%
ERK2 in MDA-MB-453 cells; ERK2 siRNA
  inhibition at 20 µg/mL: 79.6%
ERK2 in MDA-MB-453 cells; control siRNA
  inhibition at 20 µg/mL: 100%
MCF7 cells; Homo sapiens, MCF7, unit inferred, read-out: IC50
  IC50: 20.7 µM
Na^+-K^+-ATPase [4]; actein 0.8 μM alone
  ATPase activity: 95.1%
HCC1569 cells; unit inferred, read-out: IC50
  IC50: 25 µM
MDA-MB-453 cells [5]
  amplification: IC50 ATPase inhibition / IC50 growth inhibition: about 2 fold
MDA-MB-453 cells [5]; read-out: IC50
  IC50: ~5 µg/mL and ~7.4 µM
MDA-MB-453 cells [6]; (a) DMEM + […] FBS 48 hrs, then actein 20 μg/ml
  Sub G1 (%): 1.8%
MDA-MB-453 cells [6]; (a) […] FBS, actein 20 μg/ml
  G1 (%): 79.6%
  G2/M (%): 10.0%
  S (%): 8.5%
MDA-MB-453 cells [6]; (a) […] FBS, actein 40 μg/ml
  G1 (%): 83.8%
  G2/M (%): 9.0%
  S (%): 4.9%
  Sub G1 (%): 2.2%
MDA-MB-453 cells [6]; (b) Actein 2 μg/mL
  G1 (%): 69.8%
  G2/M (%): 18.6%
  S (%): 11.0%
  Sub G1 (%): 0.9%
MDA-MB-453 cells [6]; (b) Actein 20 μg/mL
  G1 (%): 70.8%
  G2/M (%): 18.2%
  S (%): 9.7%
  Sub G1 (%): 1.6%
MDA-MB-453 cells [6]; (c) Actein 20 μg/mL
  G1 (%): 59.2%
  G2/M (%): 29.5%
  S (%): 8.6%
  Sub G1 (%): 2.7%
